Counter-ions that a name gives are not always drawn.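 Briefly, cells in 96-well plates were exposed to five compound concentrations for 48 h, and endpoints were estimated by linear interpolation. GI50 is the concentration that inhibits growth by half.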 The source made the active and inactive calls. No stated cut-off is given here; in the data, active = GI50 up to about 1.1 µM and inactive = higher.
Columns and labels:
Assay in all cases: growth of human tumour cells (NCI), 48 h
A498 = system: A498
COLO 205 = system: COLO 205
DU-145 = system: DU-145
HL-60 = system: HL-60
HT-29 = system: HT-29
IGROV-1 = system: IGROV-1
K562 = system: K562
LOX IMVI = system: LOX IMVI
M14 = system: M14
MOLT-4 = system: MOLT-4
OVCAR-3 = system: OVCAR-3
OVCAR-8 = system: OVCAR-8
SF-268 = system: SF-268
SF-539 = system: SF-539
SN12C = system: SN12C
SNB-19 = system: SNB-19
SR = system: SR
SW-620 = system: SW-620
TK-10 = system: TK-10
Malme-3M = system: Malme-3M

| SMILES | GI50 (A498) | GI50 (COLO 205) | GI50 (DU-145) | GI50 (HL-60) | GI50 (HT-29) | GI50 (IGROV-1) | GI50 (K562) | GI50 (LOX IMVI) | GI50 (M14) | GI50 (MOLT-4) | GI50 (OVCAR-3) | GI50 (OVCAR-8) | GI50 (SF-268) | GI50 (SF-539) | GI50 (SN12C) | GI50 (SNB-19) | GI50 (SR) | GI50 (SW-620) | GI50 (TK-10) | GI50 (Malme-3M) |
| --- | --- | --- | --- | --- | --- | --- | --- | --- | --- | --- | --- | --- | --- | --- | --- | --- | --- | --- | --- | --- |
| CCCCCCn1c(SC)nc(COC(=O)NC)c1COC(=O)NC | 16.3 µM (inactive) | 15.8 µM (inactive) | 16.5 µM (inactive) | 19.6 µM (inactive) | 20 µM (inactive) | 15.3 µM (inactive) | 19.3 µM (inactive) | 21.3 µM (inactive) | 21.3 µM (inactive) | 13 µM (inactive) | 17.9 µM (inactive) | 17.4 µM (inactive) | 14.6 µM (inactive) | 17.6 µM (inactive) | 16.7 µM (inactive) | 16.1 µM (inactive) | 19.7 µM (inactive) | 19.2 µM (inactive) | 16.7 µM (inactive) |  |
| N=C(N)c1ccc(-c2ccc(-c3ccc(C(=N)N)cc3)o2)cc1 [FURAMIDINE HYDROCHLORIDE] | 63.7 µM (inactive) | 12.4 µM (inactive) | 32.7 µM (inactive) | 77.8 µM (inactive) | 24.5 µM (inactive) | 46.3 µM (inactive) | 22.8 µM (inactive) |  | 25.1 µM (inactive) | 27.4 µM (inactive) | > 100 µM (inactive) | 33.7 µM (inactive) | 45.3 µM (inactive) | 37.3 µM (inactive) | 12.6 µM (inactive) | 51.9 µM (inactive) | 29.8 µM (inactive) | 28.5 µM (inactive) | 24.9 µM (inactive) | 18.6 µM (inactive) |
| O=C(O[C@H]1[C@@H](O)[C@H](n2cnc3c(Cl)ncnc32)O[C@@H]1COC(c1ccccc1)(c1ccccc1)c1ccccc1)c1ccccc1 | 17.2 µM (inactive) | 15.9 µM (inactive) | 1.91 µM (inactive) | 9.91 µM (inactive) | 18.5 µM (inactive) | 15.9 µM (inactive) | 3.6 µM (inactive) | 4.91 µM (inactive) | 26.3 µM (inactive) | 3.04 µM (inactive) | 14.2 µM (inactive) | 25.4 µM (inactive) | 15.4 µM (inactive) | 20 µM (inactive) | 11.9 µM (inactive) | 39.3 µM (inactive) | 2.67 µM (inactive) | 54.5 µM (inactive) | 45.2 µM (inactive) |  |
| FC1(F)[Se]C2C3CCC(C3)C2C1(F)F (stereo not given) | > 100 µM (inactive) | > 100 µM (inactive) | > 100 µM (inactive) |  |  | > 100 µM (inactive) |  | > 100 µM (inactive) | > 100 µM (inactive) | > 100 µM (inactive) | > 100 µM (inactive) | > 100 µM (inactive) | > 100 µM (inactive) | > 100 µM (inactive) | > 100 µM (inactive) | > 100 µM (inactive) | > 100 µM (inactive) | > 100 µM (inactive) | > 100 µM (inactive) | > 100 µM (inactive) |
| O=C1CNc2cc(N3CCOCC3)ccc2N1 | 60.7 µM (inactive) | > 100 µM (inactive) | > 100 µM (inactive) | > 100 µM (inactive) | > 100 µM (inactive) | > 100 µM (inactive) | > 100 µM (inactive) | > 100 µM (inactive) | > 100 µM (inactive) | > 100 µM (inactive) | > 100 µM (inactive) | > 100 µM (inactive) | > 100 µM (inactive) |  |  | > 100 µM (inactive) | > 100 µM (inactive) | > 100 µM (inactive) | > 100 µM (inactive) | > 100 µM (inactive) |
| COc1ccc(-c2c(N)n(-c3cccc(C(=O)O)c3)c(=O)c3cc([N+](=O)[O-])ccc23)cc1 | > 100 µM (inactive) |  | > 100 µM (inactive) | > 100 µM (inactive) | > 100 µM (inactive) | > 100 µM (inactive) | > 100 µM (inactive) | > 100 µM (inactive) | > 100 µM (inactive) | > 100 µM (inactive) | > 100 µM (inactive) | > 100 µM (inactive) | > 100 µM (inactive) | > 100 µM (inactive) |  | > 100 µM (inactive) | > 100 µM (inactive) | > 100 µM (inactive) | > 100 µM (inactive) |  |
| CCOC(=O)N1CCC(=C2c3ccc(Cl)cc3CCc3cccnc32)CC1 [LORATADINE] | 0.849 µM (active) | 9.14 µM (inactive) | 11.5 µM (inactive) | 6.12 µM (inactive) | 3.18 µM (inactive) | 1.79 µM (inactive) | 6.12 µM (inactive) | 10.9 µM (inactive) | 12.4 µM (inactive) | 4.23 µM (inactive) | 7.78 µM (inactive) | 12.7 µM (inactive) |  |  | 10.2 µM (inactive) |  | 2.64 µM (inactive) | 11.8 µM (inactive) | 13.2 µM (inactive) | 5.94 µM (inactive) |
| O=Cc1ccc2ccocc1-2 | > 100 µM (inactive) | > 100 µM (inactive) | > 100 µM (inactive) | > 100 µM (inactive) | > 100 µM (inactive) | > 100 µM (inactive) | > 100 µM (inactive) | > 100 µM (inactive) | > 100 µM (inactive) | > 100 µM (inactive) | > 100 µM (inactive) | > 100 µM (inactive) | > 100 µM (inactive) | > 100 µM (inactive) | > 100 µM (inactive) | > 100 µM (inactive) | > 100 µM (inactive) | > 100 µM (inactive) | > 100 µM (inactive) |  |
| CCOc1cnc(C(O)(c2ccccc2)c2ccccc2)o1 | > 100 µM (inactive) | > 100 µM (inactive) | > 100 µM (inactive) | > 100 µM (inactive) | > 100 µM (inactive) | > 100 µM (inactive) | > 100 µM (inactive) | 69.7 µM (inactive) | > 100 µM (inactive) | > 100 µM (inactive) | > 100 µM (inactive) | > 100 µM (inactive) | > 100 µM (inactive) | > 100 µM (inactive) | > 100 µM (inactive) | > 100 µM (inactive) | > 100 µM (inactive) | > 100 µM (inactive) |  | > 100 µM (inactive) |
| C/C(=N\N=C(/S)SCc1ccccc1)c1ccccn1 | 1.41 µM (inactive) | < 0.01 µM (active) | 1.54 µM (inactive) | < 0.01 µM (active) | < 0.01 µM (active) | < 0.01 µM (active) | < 0.01 µM (active) |  | < 0.0267 µM (active) | < 0.01 µM (active) | < 0.01 µM (active) | < 0.01 µM (active) | 0.184 µM (active) | 0.303 µM (active) | < 0.0269 µM (active) | 2.97 µM (inactive) | < 0.01 µM (active) | < 0.01 µM (active) | 0.339 µM (active) | 0.665 µM (active) |
| CC(C)(C)/N=C1\C(=O)C2(C)CCC1C2(C)C (stereo not given) | 16.4 µM (inactive) | > 100 µM (inactive) | > 100 µM (inactive) |  | > 100 µM (inactive) | > 100 µM (inactive) | > 100 µM (inactive) | > 100 µM (inactive) | > 100 µM (inactive) |  | > 100 µM (inactive) | > 100 µM (inactive) | > 100 µM (inactive) | > 100 µM (inactive) |  | > 100 µM (inactive) | > 100 µM (inactive) | > 100 µM (inactive) | > 100 µM (inactive) | > 100 µM (inactive) |

From ChEMBL document CHEMBL1201862, “PubChem BioAssay data set” (2004)
